# Measurements reported in ChEMBL document CHEMBL1143799, “Synthesis and primary cytotoxicity evaluation of new imidazo[2,1-b]thiazole derivatives” (2007).
# What was measured:
# Format in all cases: functional
# [1] = tested on: RXF 393; assay: Growth inhibition of human RXF393 cells after 48 hrs by SRB protein assay; conditions: RXF 393, 48 h; for TGI: read-out: Log TGI (converted)
# [2] = tested on: NCI-H23; assay: Growth inhibition of human NCI-H23 cells after 48 hrs by SRB protein assay; conditions: NCI-H23, 48 h; for TGI: read-out: Log TGI (converted)
# [3] = tested on: SNB-19; assay: Growth inhibition of human SNB19 cells after 48 hrs by SRB protein assay; conditions: SNB-19, 48 h; for TGI: read-out: Log TGI (converted)
# [4] = tested on: SF-295; assay: Growth inhibition of human SF295 cells after 48 hrs by SRB protein assay; conditions: SF-295, 48 h; for TGI: read-out: Log TGI (converted)
# [5] = tested on: MDA-MB-435; assay: Growth inhibition of human MDA-MB-435 cells after 48 hrs by SRB protein assay; conditions: MDA-MB-435, 48 h; for TGI: read-out: Log TGI (converted)
# [6] = tested on: KM12; assay: Growth inhibition of human KM12 cells after 48 hrs by SRB protein assay; conditions: KM12, 48 h; for TGI: read-out: Log TGI (converted)
# [7] = tested on: NCI-H322M; assay: Growth inhibition of human NCI-H322M cells after 48 hrs by SRB protein assay; conditions: for TGI: read-out: Log TGI (converted)
# [8] = tested on: M14; assay: Growth inhibition of human M14 cells after 48 hrs by SRB protein assay; conditions: M14, 48 h; for TGI: read-out: Log TGI (converted)
# [9] = tested on: LOX IMVI; assay: Growth inhibition of human LOX IMVI cells after 48 hrs by SRB protein assay; conditions: for TGI: read-out: Log TGI (converted)
# [10] = tested on: UACC-257; assay: Growth inhibition of human UACC257 cells after 48 hrs by SRB protein assay; conditions: UACC-257, 48 h; for TGI: read-out: Log TGI (converted)
# [11] = tested on: CCRF-CEM; assay: Growth inhibition of human CCRF-CEM cells after 48 hrs by SRB protein assay; conditions: for TGI: read-out: Log TGI (converted)
# [12] = tested on: HT-29; assay: Growth inhibition of human HT29 cells after 48 hrs by SRB protein assay; conditions: HT-29, 48 h; for TGI: read-out: Log TGI (converted)
# [13] = Growth inhibition of human 786O cells after 48 hrs by SRB protein assay; conditions: 786-0, 48 h; for TGI: read-out: Log TGI (converted)
# [14] = tested on: RPMI-8226; assay: Growth inhibition of human RPMI8226 cells after 48 hrs by SRB protein assay; conditions: RPMI-8226, 48 h; for TGI: read-out: Log TGI (converted)
# [15] = tested on: SF-539; assay: Growth inhibition of human SF539 cells after 48 hrs by SRB protein assay; conditions: SF-539, 48 h; for TGI: read-out: Log TGI (converted)
# [16] = tested on: SK-OV-3; assay: Growth inhibition of human SK-OV-3 cells after 48 hrs by SRB protein assay; conditions: SK-OV-3, 48 h; for TGI: read-out: Log TGI (converted)
# [17] = tested on: HCT-15; assay: Growth inhibition of human HCT15 cells after 48 hrs by SRB protein assay; conditions: HCT-15, 48 h; for TGI: read-out: Log TGI (converted)
# [18] = tested on: NCI-H522; assay: Growth inhibition of human NCI-H522 cells after 48 hrs by SRB protein assay; conditions: NCI-H522, 48 h; for TGI: read-out: Log TGI (converted)
# [19] = tested on: SK-MEL-28; assay: Growth inhibition of human SK-MEL-28 cells after 48 hrs by SRB protein assay; conditions: SK-MEL-28, 48 h; for TGI: read-out: Log TGI (converted)
# [20] = tested on: CAKI-1; assay: Growth inhibition of human CAKI1 cells after 48 hrs by SRB protein assay; conditions: CAKI-1, 48 h; for TGI: read-out: Log TGI (converted)
# [21] = tested on: HCT-116; assay: Growth inhibition of human HCT116 cells after 48 hrs by SRB protein assay; conditions: HCT-116, 48 h; for TGI: read-out: Log TGI (converted)
# [22] = tested on: NCI-H460; assay: Growth inhibition of human NCI-H460 cells after 48 hrs by SRB protein assay; conditions: NCI-H460, 48 h; for TGI: read-out: Log TGI (converted)
# [23] = tested on: Hs-578T; assay: Growth inhibition of human HS578T cells after 48 hrs by SRB protein assay; conditions: for TGI: read-out: Log TGI (converted)
# [24] = tested on: COLO 205; assay: Growth inhibition of human COLO205 cells after 48 hrs by SRB protein assay; conditions: COLO 205, 48 h; for TGI: read-out: Log TGI (converted)
# [25] = tested on: SW-620; assay: Growth inhibition of human SW620 cells after 48 hrs by SRB protein assay; conditions: SW-620, 48 h; for TGI: read-out: Log TGI (converted)
# [26] = tested on: BT-549; assay: Growth inhibition of human BT549 cells after 48 hrs by SRB protein assay; conditions: BT-549, 48 h; for TGI: read-out: Log TGI (converted)
# [27] = tested on: UACC-62; assay: Growth inhibition of human UACC62 cells after 48 hrs by SRB protein assay; conditions: UACC-62, 48 h; for TGI: read-out: Log TGI (converted)
# [28] = tested on: PC-3; assay: Growth inhibition of human PC3 cells after 48 hrs by SRB protein assay; conditions: PC-3, 48 h; for TGI: read-out: Log TGI (converted)
# [29] = tested on: SN12C; assay: Growth inhibition of human SN12C cells after 48 hrs by SRB protein assay; conditions: for TGI: read-out: Log TGI (converted)
# [30] = tested on: SK-MEL-5; assay: Growth inhibition of human SK-MEL-5 cells after 48 hrs by SRB protein assay; conditions: SK-MEL-5, 48 h; for TGI: read-out: Log TGI (converted)
# [31] = tested on: HOP-62; assay: Growth inhibition of human HOP62 cells after 48 hrs by SRB protein assay; conditions: HOP-62, 48 h; for TGI: read-out: Log TGI (converted)
# [32] = tested on: A549; assay: Growth inhibition of human A549 cells after 48 hrs by SRB protein assay; conditions: A549, 48 h; for TGI: read-out: Log TGI (converted)
# [33] = tested on: SF-268; assay: Growth inhibition of human SF268 cells after 48 hrs by SRB protein assay; conditions: SF-268, 48 h; for TGI: read-out: Log TGI (converted)
# [34] = tested on: UO-31; assay: Growth inhibition of human UO31 cells after 48 hrs by SRB protein assay; conditions: UO-31, 48 h; for TGI: read-out: Log TGI (converted)
# [35] = tested on: MCF7; assay: Growth inhibition of human MCF7 cells after 48 hrs by SRB protein assay; conditions: MCF7, 48 h; for TGI: read-out: Log TGI (converted)
# [36] = tested on: DU-145; assay: Growth inhibition of human DU145 cells after 48 hrs by SRB protein assay; conditions: DU-145, 48 h; for TGI: read-out: Log TGI (converted)
# [37] = tested on: SNB-75; assay: Growth inhibition of human SNB75 cells after 48 hrs by SRB protein assay; conditions: SNB-75, 48 h; for TGI: read-out: Log TGI (converted)
# [38] = tested on: EKVX; assay: Growth inhibition of human EKVX cells after 48 hrs by SRB protein assay; conditions: for TGI: read-out: Log TGI (converted)
# [39] = tested on: HCC 2998; assay: Growth inhibition of human HCC2998 cells after 48 hrs by SRB protein assay; conditions: HCC 2998, 48 h; for TGI: read-out: Log TGI (converted)
smiles,measurement,setting,value
O=C(Cc1csc2nc(-c3ccc(Br)cc3)cn12)N/N=C/c1ccccc1O,GI50,[1],38 µM
same,TGI,[1],63.1 µM
same,GI50,[2],3.39 µM
same,TGI,[2],14.1 µM
same,GI50,[3],6.76 µM
same,TGI,[3],25.1 µM
same,GI50,[4],2.75 µM
same,TGI,[4],9.33 µM
same,GI50,[5],3.31 µM
same,TGI,[5],13.5 µM
same,GI50,[6],3.63 µM
same,TGI,[6],17 µM
same,GI50,[7],2.14 µM
same,TGI,[7],10.7 µM
same,GI50,[8],2.57 µM
same,TGI,[8],7.76 µM
same,GI50,[9],3.47 µM
same,TGI,[9],12.9 µM
same,GI50,[10],3.72 µM
same,TGI,[10],11.5 µM
same,GI50,[11],1.82 µM
same,TGI,[11],8.32 µM
same,GI50,[12],6.03 µM
same,TGI,[12],19.1 µM
same,GI50,[13],4.68 µM
same,TGI,[13],17.8 µM
same,GI50,[14],2.82 µM
same,TGI,[14],20.9 µM
same,GI50,[15],3.55 µM
same,TGI,[15],11.7 µM
same,GI50,[16],12.9 µM
same,TGI,[16],30.2 µM
same,GI50,[17],0.955 µM
same,TGI,[17],17.4 µM
same,GI50,[18],5.25 µM
same,TGI,[18],26.9 µM
same,GI50,[19],12 µM
same,TGI,[19],24 µM
same,GI50,[20],0.398 µM
same,TGI,[20],2.4 µM
same,GI50,[21],3.24 µM
same,TGI,[21],12.3 µM
same,GI50,[22],15.8 µM
same,TGI,[22],> 100 µM
same,GI50,[23],13.5 µM
same,TGI,[23],42.7 µM
same,GI50,[24],5.13 µM
same,TGI,[24],22.9 µM
same,GI50,[25],3.98 µM
same,TGI,[25],17.4 µM
same,GI50,[26],10 µM
same,TGI,[26],22.4 µM
same,GI50,[27],2.09 µM
same,TGI,[27],7.24 µM
same,GI50,[28],4.27 µM
same,TGI,[28],16.6 µM
same,GI50,[29],3.31 µM
same,TGI,[29],15.8 µM
same,GI50,[30],2.95 µM
same,TGI,[30],10.7 µM
same,GI50,[31],3.89 µM
same,TGI,[31],14.8 µM
same,GI50,[32],6.17 µM
same,TGI,[32],24 µM
same,GI50,[33],> 100 µM
same,TGI,[33],> 100 µM
same,GI50,[34],7.08 µM
same,TGI,[34],> 100 µM
same,GI50,[35],13.2 µM
same,TGI,[35],> 100 µM
same,GI50,[36],2.88 µM
same,TGI,[36],13.8 µM
same,GI50,[37],12.9 µM
same,TGI,[37],32.4 µM
same,GI50,[38],3.89 µM
same,TGI,[38],19.1 µM
same,GI50,[39],3.47 µM
same,TGI,[39],12.6 µM
Nc1nc2[nH]cnc2c(=S)[nH]1 [THIOGUANINE],GI50,[1],0.759 µM
same,TGI,[1],7.08 µM
same,GI50,[2],1.07 µM
same,TGI,[2],22.9 µM
same,GI50,[3],79.4 µM
same,TGI,[3],245 µM
same,GI50,[4],1.02 µM
same,TGI,[4],158 µM
same,GI50,[5],0.851 µM
same,TGI,[5],32.4 µM
same,GI50,[6],1.74 µM
same,TGI,[6],31.6 µM
same,GI50,[7],7.41 µM
same,TGI,[7],224 µM
same,GI50,[8],0.589 µM
same,TGI,[8],14.5 µM
same,GI50,[9],0.209 µM
same,TGI,[9],9.12 µM
same,GI50,[10],2 µM
same,TGI,[10],97.7 µM
same,GI50,[11],0.155 µM
same,TGI,[11],25.7 µM
same,GI50,[12],1.15 µM
same,TGI,[12],105 µM
same,GI50,[13],0.832 µM
same,TGI,[13],107 µM
same,GI50,[14],0.398 µM
same,TGI,[14],20.9 µM
same,GI50,[15],1.02 µM
same,TGI,[15],69.2 µM
same,GI50,[16],0.55 µM
same,TGI,[16],16.6 µM
same,GI50,[17],1.1 µM
same,TGI,[17],51.3 µM
same,GI50,[18],0.912 µM
same,TGI,[18],6.31 µM
same,GI50,[19],8.91 µM
same,TGI,[19],155 µM
same,GI50,[20],0.537 µM
same,TGI,[20],15.8 µM
same,GI50,[21],0.537 µM
same,TGI,[21],16.2 µM
same,GI50,[22],0.676 µM
same,TGI,[22],20 µM
same,GI50,[23],7.41 µM
same,TGI,[23],182 µM
same,GI50,[24],1.7 µM
same,TGI,[24],8.91 µM
same,GI50,[25],18.6 µM
same,TGI,[25],63.1 µM
same,GI50,[26],3.63 µM
same,TGI,[26],162 µM
same,GI50,[27],0.501 µM
same,TGI,[27],4.57 µM
same,GI50,[28],1.78 µM
same,TGI,[28],174 µM
same,GI50,[29],1.26 µM
same,TGI,[29],174 µM
same,GI50,[30],3.55 µM
same,TGI,[30],16.6 µM
same,GI50,[31],0.741 µM
same,TGI,[31],28.8 µM
same,GI50,[32],3.55 µM
same,TGI,[32],105 µM
same,GI50,[33],1.15 µM
same,TGI,[33],158 µM
same,GI50,[34],1.48 µM
same,TGI,[34],32.4 µM
same,GI50,[35],0.708 µM
same,TGI,[35],42.7 µM
same,GI50,[36],0.794 µM
same,TGI,[36],135 µM
same,GI50,[37],1.45 µM
same,TGI,[37],41.7 µM
same,GI50,[38],1.91 µM
same,TGI,[38],123 µM
same,GI50,[39],1 µM
same,TGI,[39],18.2 µM
